What was measured:
Settings in all cases: incubation time: 72 h
[1] = test system: Hs578T; test: normalised viability (% of control), CellTiter-Blue; higher = more viable cells (about 100 = DMSO control)
Procedure, shortened: (§1)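 Breast cancer cell lines were treated for 72 h in 384-well format and measured by CellTiter-Blue fluorescence at 560/590 nm. Results were normalised per plate to vehicle (100) and a positive kill control (0). The entry is normalised viability at a single listed concentration of the series.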

[2] = test system: CAL-51; test: as above
Procedure, shortened: as §1

[3] = test system: MFM-223; test: as above
Procedure, shortened: as §1

[4] = test system: HCC1143; test: as above
Procedure, shortened: as §1

[5] = test system: MDA-MB-231; test: as above
Procedure, shortened: as §1

[6] = test system: MDA-MB-436; test: as above
Procedure, shortened: as §1

[7] = test system: MDA-MB-468; test: as above
Procedure, shortened: as §1

[8] = test system: DU-4475; test: as above
Procedure, shortened: as §1

[9] = test system: HCC1937; test: as above
Procedure, shortened: as §1

[10] = test system: Hs578T; test: normalised viability (% of control), CellTiter-Blue; higher = more viable cells (100 = DMSO, 0 = benzethonium chloride kill control)
Protocol: (§2)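 DSRT, CellTiter-Blue viability, 72 h incubation. Signal is normalised to DMSO and benzethonium chloride controls. Value is the normalised response at dose 1.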

[11] = test system: CAL-51; test: as above
Protocol: as §2

[12] = test system: BT-549; test: as above
Protocol: as §2

[13] = test system: CAL-85-1; test: as above
Protocol: as §2

[14] = test system: HCC1599; test: as above
Protocol: as §2

[15] = test system: HDQ-P1; test: as above
Protocol: as §2

[16] = test system: MFM-223; test: as above
Protocol: as §2

[17] = test system: BT-474; test: as above
Protocol: as §2

[18] = test system: MDA-MB-453; test: as above
Protocol: as §2

[19] = test system: CAL-120; test: as above
Protocol: as §2

[20] = test system: HCC1143; test: as above
Protocol: as §2

[21] = test system: CAL-148; test: as above
Protocol: as §2

[22] = test system: MDA-MB-231; test: as above
Protocol: as §2

[23] = test system: MDA-MB-436; test: as above
Protocol: as §2

[24] = test system: MDA-MB-468; test: as above
Protocol: as §2

[25] = test system: DU-4475; test: as above
Protocol: as §2

[26] = test system: SK-BR-3; test: as above
Protocol: as §2

[27] = test system: HCC1937; test: as above
Protocol: as §2

Nc1nc(=O)c2c([nH]1)NCC(CNc1ccc(C(=O)N[C@@H](CCC(=O)O)C(=O)O)cc1)N2C=O (mixture of isomers) [Folinic acid]
Settings	normalised viability [%]
[1], 0.99 nM	92.2
[1], 99 nM	102
[1], 990 nM	96.3
[2], 0.297 nM	94
[2], 2.97 nM	92
[2], 9.9 nM	97.6
[3], 0.99 nM	106
[3], 99 nM	107
[3], 990 nM	94.4
[4], 0.99 nM	92.7
[4], 99 nM	95.8
[4], 990 nM	92
[5], 0.99 nM	100
[5], 99 nM	123
[5], 990 nM	118
[6], 0.99 nM	123
[6], 99 nM	112
[6], 990 nM	123
[7], 0.99 nM	115
[7], 99 nM	107
[7], 990 nM	115
[8], 0.297 nM	110
[8], 2.97 nM	85
[8], 9.9 nM	109
[9], 0.99 nM	121
[9], 99 nM	87.8
[9], 990 nM	107
[10], 0.099 nM	105
[11], 0.099 nM	92.7
[12], 0.099 nM	94.1
[13], 0.099 nM	98.4
[14], 0.099 nM	117
[15], 0.099 nM	131
[16], 0.099 nM	105
[17], 0.099 nM	91.7
[18], 0.099 nM	104
[19], 0.099 nM	95.4
[20], 0.099 nM	107
[21], 0.099 nM	102
[22], 0.099 nM	101
[23], 0.099 nM	113
[24], 0.099 nM	117
[25], 0.099 nM	113
[26], 0.099 nM	112
[27], 0.099 nM	95.9

Nc1ccccc1NC(=O)c1ccc(CNc2nccc(-c3cccnc3)n2)cc1 [Mocetinostat]
Settings	normalised viability [%]
[1], 10 nM	96.8
[1], 1000 nM	81.4
[1], 10000 nM	12.6
[2], 3 nM	106
[2], 30 nM	96.9
[2], 100 nM	97.7
[3], 10 nM	88
[3], 1000 nM	80.9
[3], 10000 nM	31.6
[4], 10 nM	78.5
[4], 1000 nM	67
[4], 10000 nM	16.7
[5], 10 nM	85.7
[5], 1000 nM	75.7
[5], 10000 nM	22.4
[6], 10 nM	94
[6], 1000 nM	61.2
[6], 10000 nM	28.9
[7], 10 nM	109
[7], 1000 nM	84.8
[7], 10000 nM	8.4
[8], 3 nM	97.2
[8], 30 nM	98.5
[8], 100 nM	103
[9], 10 nM	84.4
[9], 1000 nM	70.4
[9], 10000 nM	21.4
[10], 1 nM	113
[11], 1 nM	93.6
[12], 1 nM	117
[13], 1 nM	91.8
[14], 1 nM	92.2
[15], 1 nM	84.2
[16], 1 nM	91.2
[17], 1 nM	107
[18], 1 nM	92.5
[19], 1 nM	81.7
[20], 1 nM	91.1
[21], 1 nM	107
[22], 1 nM	110
[23], 1 nM	99.2
[24], 1 nM	92
[25], 1 nM	91.3
[26], 1 nM	93
[27], 1 nM	90.8

CCC/C=C/C=C/C(=O)O[C@H]1/C(=C/C(=O)OC)C[C@H]2C[C@H]([C@@H](C)O)OC(=O)C[C@H](O)C[C@@H]3C[C@H](OC(C)=O)C(C)(C)[C@](O)(C[C@@H]4C/C(=C/C(=O)OC)C[C@H](/C=C/C(C)(C)[C@]1(O)O2)O4)O3 [Bryostatin 1]
Settings	normalised viability [%]
[1], 0.1 nM	95.1
[1], 10 nM	97
[1], 100 nM	106
[2], 0.03 nM	108
[2], 0.3 nM	104
[2], 1 nM	108
[3], 0.1 nM	97
[3], 10 nM	91.2
[3], 100 nM	94.6
[4], 0.1 nM	85.3
[4], 10 nM	80.5
[4], 100 nM	80.5
[5], 10 nM	101
[5], 1000 nM	82.8
[5], 10000 nM	90.2
[6], 0.1 nM	110
[6], 10 nM	103
[6], 100 nM	127
[7], 10 nM	99.6
[7], 1000 nM	104
[7], 10000 nM	94.4
[8], 0.03 nM	92.7
[8], 0.3 nM	79.2
[8], 1 nM	91.2
[9], 10 nM	108
[9], 1000 nM	80.2
[9], 10000 nM	103
[10], 0.01 nM	106
[11], 0.01 nM	99.2
[12], 0.01 nM	109
[13], 0.01 nM	97.5
[14], 0.01 nM	123
[15], 0.01 nM	100
[16], 0.01 nM	96.2
[17], 1 nM	105
[18], 0.01 nM	102
[19], 0.01 nM	85.8
[20], 0.01 nM	114
[21], 0.01 nM	98.8
[22], 1 nM	98.7
[23], 0.01 nM	140
[24], 1 nM	99.1
[25], 0.01 nM	118
[26], 1 nM	103
[27], 1 nM	85.2

Cc1c(CN2CCN(C(=O)[C@H](C)O)CC2)sc2c(N3CCOCC3)nc(-c3cnc(N)nc3)nc12 [GDC-0980]
Settings	normalised viability [%]
[1], 10 nM	121
[1], 1000 nM	28.9
[1], 10000 nM	17.1
[2], 3 nM	112
[2], 30 nM	98.5
[2], 100 nM	71.9
[3], 10 nM	86.1
[3], 1000 nM	18.1
[3], 10000 nM	14.2
[4], 10 nM	88.7
[4], 1000 nM	33.8
[4], 10000 nM	15.6
[5], 10 nM	95.6
[5], 1000 nM	27.6
[5], 10000 nM	23.6
[6], 10 nM	81.2
[6], 1000 nM	44.7
[6], 10000 nM	18.2
[7], 10 nM	105
[7], 1000 nM	44.4
[7], 10000 nM	10.7
[8], 3 nM	102
[8], 30 nM	82.1
[8], 100 nM	83.5
[9], 10 nM	113
[9], 1000 nM	39.7
[9], 10000 nM	26.2
[10], 1 nM	102
[11], 1 nM	101
[12], 1 nM	91.7
[13], 1 nM	83.5
[14], 1 nM	95.5
[15], 1 nM	95.9
[16], 1 nM	96.8
[17], 1 nM	103
[18], 1 nM	96.5
[19], 1 nM	96.3
[20], 1 nM	94.9
[21], 1 nM	106
[22], 1 nM	96.6
[23], 1 nM	84.5
[24], 1 nM	99.6
[25], 1 nM	104
[26], 1 nM	92.2
[27], 1 nM	88.1

Source: the supplement of paper PMC4862054
